According to patent publication US20090099186A1, “INHIBITORS OF VIRAL REPLICATION” (priority 2005, published 2009):

Target: T1, full-length NS3 (1-631) protein (HCV NS3 helicase) (Hepatitis C virus genotype 1a, UniProt P27958)
T1 construct: Recombinant, purified, full-length NS3 (1-631) protein
Assay: HCV Helicase TR-FRET Unwinding Assay
Format: biochemical
Description: HCV Helicase TR-FRET Unwinding Assay
Compound potency was assessed by determining the ability of the compound to inhibit DNA unwinding in an in vitro homogeneous time-resolved fluorescence quench assay. The helicase substrate (Perkin Elmer, TruPoint Helicase Substrate) consisted of partially double-stranded DNA, with one oligonucleotide strand labeled with a fluorescent europium chelate and the other strand labeled with the QSY™ 7 quencher. In the presence of helicase and ATP, this DNA is unwound and a large increase in fluorescence is observed. An excess of an unlabeled oligonucleotide (also from Perkin Elmer, TruPoint Helicase Capture Strand) that is complementary to the quencher strand was included in the assay to prevent reannealing of the europium and QSY-labeled strands.
The assay buffer consisted of 25 mM MOPS (pH 7.0), 500 μM MgCl2, and 0.005% (v/v) Triton X-100, with DMSO being present at a final concentration of 2% (v/v). Recombinant, purified, full-length NS3 (1-631) protein was included in these assays at a final concentration of 2.5 nM. Compound was incubated with NS3 protein for 5 minutes in a 384-well white Proxiplate™ (Perkin Elmer) prior to the addition of TruPoint Helicase Substrate (4 nM final concentration), TruPoint Helicase Capture Strand (15 nM final concentration), and ATP (100 μM final concentration). The final reaction volume was 20 μL. Immediately after the addition of the substrates and capture strand, the initial rates of the unwinding reactions were determined at room temperature via an Envision (Perkin Elmer) plate reader. The rates of reactions containing test compound were compared to those lacking test compound in order to evaluate compound potency. IC50 values were determined using the curve-fitting software XLfit (IDBS).

[1] = Table 4, inhibition of DNA unwinding, 2.5 nM NS3, 100 μM ATP
[2] = second TR-FRET IC50 column (c2) of Table 4, same head as the first, inhibition of DNA unwinding

T1 sequence (P27958 1027-1657 T1100M/T1173A/K1247Q/A1303G/S1327L/G1556E/R1608W): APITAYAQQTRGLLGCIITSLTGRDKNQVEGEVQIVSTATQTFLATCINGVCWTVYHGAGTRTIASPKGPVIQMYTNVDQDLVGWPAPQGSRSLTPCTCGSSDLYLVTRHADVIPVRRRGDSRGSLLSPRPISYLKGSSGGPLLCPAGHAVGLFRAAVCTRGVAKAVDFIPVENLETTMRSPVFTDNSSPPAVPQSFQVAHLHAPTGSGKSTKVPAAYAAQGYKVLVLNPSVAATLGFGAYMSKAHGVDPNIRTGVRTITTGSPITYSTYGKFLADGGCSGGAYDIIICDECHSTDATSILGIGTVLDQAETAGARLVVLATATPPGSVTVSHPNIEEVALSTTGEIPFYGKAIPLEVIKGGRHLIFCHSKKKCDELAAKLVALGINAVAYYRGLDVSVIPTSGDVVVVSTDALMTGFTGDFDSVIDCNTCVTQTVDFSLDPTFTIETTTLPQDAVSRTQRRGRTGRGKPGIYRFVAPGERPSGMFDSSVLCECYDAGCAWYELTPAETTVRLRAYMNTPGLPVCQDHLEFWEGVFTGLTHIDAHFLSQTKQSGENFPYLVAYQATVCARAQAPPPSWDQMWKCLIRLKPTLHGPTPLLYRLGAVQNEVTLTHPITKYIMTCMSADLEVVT

CN(C)c1ccc(/C=C/C(=O)NCCN2CCOCC2)c(Cl)c1 [Example 10]
IC50 [1]: 10 to 50 µM | IC50 [2]: 10 to 50 µM

CCN(CC)C(=O)/C=C/c1ccc(Sc2ccc(F)cc2)cc1Cl [Example 4, (E)-3-(2-chloro-4-(4-fluorophenylthio)phenyl)-N,N-diethylacrylamide]
IC50 [1]: 10 to 50 µM | IC50 [2]: 10 to 50 µM

CN(C)c1ccc(/C=C/C(=O)N2CCN(C(=O)c3ccoc3)CC2)c(Cl)c1 [Example 12, (E)-3-(2-chloro-4-(dimethylamino)phenyl)-1-(4-(furan-3-carbonyl)piperazin-1-yl)prop-2-en-1-one]
IC50 [1]: 10 to 50 µM | IC50 [2]: 10 to 50 µM

CN(C)c1ccc(/C=C/C(=O)N2CCC(C(=O)O)CC2)c(Cl)c1 [Example 15]
IC50 [1]: 10 to 50 µM | IC50 [2]: 10 to 50 µM

Cc1cc(/C=C/C(=O)N2CCN(C(=O)c3ccoc3)CC2)c(Cl)cc1Sc1ccc(F)cc1 [Example 17, (E)-3-(2-chloro-4-(4-fluorophenylthio)-5-methylphenyl)-1-(4-(furan-3-carbonyl)piperazin-1-yl)prop-2-en-1-one]
IC50 [1]: 10 to 50 µM | IC50 [2]: 10 to 50 µM

O=C(/C=C/c1ccc(Sc2ccc(F)cc2)cc1Cl)Nc1cccc(C(=O)O)c1 [Example 8, (E)-3-(3-(2-chloro-4-(4-fluorophenylthio)phenyl)acrylamido)benzoic acid]
IC50 [1]: < 10 µM | IC50 [2]: < 10 µM

O=C(/C=C/c1ccc(Sc2ccc(F)cc2)cc1Cl)N1CCOCC1 [Example 3, (E)-3-(2-chloro-4-(4-fluorophenylthio)phenyl)-1-morpholinoprop-2-en-1-one]
IC50 [1]: 10 to 50 µM | IC50 [2]: 10 to 50 µM

Cc1cc(/C=C/C(=O)NCCC(=O)O)c(Cl)cc1Sc1ccc(F)cc1 [Example 20, (E)-3-(3-(2-chloro-4-(4-fluorophenylthio)-5-methylphenyl)acrylamido)propanoic acid]
IC50 [1]: 10 to 50 µM | IC50 [2]: 10 to 50 µM

COC(=O)C1CCN(C(=O)/C=C/c2ccc(Sc3ccc(F)cc3)cc2Cl)CC1 [Example 5, (E)-methyl 1-(3-(2-chloro-4-(4-fluorophenylthio)phenyl)acryloyl)piperidine-4-carboxylate]
IC50 [1]: 10 to 50 µM | IC50 [2]: 10 to 50 µM

COc1ccccc1Sc1ccc(/C=C/C(=O)NCCC(=O)O)c(Cl)c1 [Example 29, (E)-3-(3-(2-chloro-4-(2-methoxyphenylthio)phenyl)acrylamido)propanoic acid]
IC50 [1]: 10 to 50 µM | IC50 [2]: 10 to 50 µM

O=C(/C=C/c1ccc(Sc2ccc(F)cc2)cc1Cl)N1CCN(C(=O)c2ccoc2)CC1 [Example 1B, (E)-3-(2-chloro-4-(4-fluorophenylthio)phenyl)-1-(4-(furan-3-carbonyl)piperazin-1-yl)prop-2-en-1-one]
IC50 [1]: 10 to 50 µM | IC50 [2]: 10 to 50 µM

O=C(O)C1CCN(C(=O)/C=C/c2ccc(Sc3ccc(F)cc3)cc2Cl)CC1 [Example 6]
IC50 [1]: 10 to 50 µM | IC50 [2]: 10 to 50 µM

O=C(O)C1CCN(C(=O)/C=C/c2ccc(Sc3ccc(F)cc3)cc2C(F)(F)F)CC1 [Example 31B, (E)-1-(3-(4-(4-fluorophenylthio)-2-(trifluoromethyl)phenyl)acryloyl)piperidine-4-carboxylic acid]
IC50 [1]: 10 to 50 µM | IC50 [2]: 10 to 50 µM

Cc1cc(/C=C/C(=O)Nc2cccc(C(=O)O)c2)c(Cl)cc1Sc1ccc(F)cc1 [Example 21, (E)-3-(3-(2-chloro-4-(4-fluorophenylthio)-5-methylphenyl)acrylamido)benzoic acid]
IC50 [1]: < 10 µM | IC50 [2]: < 10 µM

COC(=O)c1cccc(NC(=O)/C=C/c2ccc(Sc3ccc(F)cc3)cc2Cl)c1 [Example 7, (E)-methyl 3-(3-(2-chloro-4-(4-fluorophenylthio)phenyl)acrylamido)benzoate]
IC50 [1]: < 10 µM | IC50 [2]: < 10 µM

O=C(/C=C/c1ccccc1Cl)Nc1ccccc1 [Example 35, (E)-3-(2-chlorophenyl)-N-phenylacrylamide]
IC50 [1]: 10 to 50 µM | IC50 [2]: 10 to 50 µM

COc1ccccc1Sc1ccc(/C=C/C(=O)N2CCN(C(=O)c3ccoc3)CC2)c(Cl)c1 [Example 27, (E)-3-(2-chloro-4-(2-methoxyphenylthio)phenyl)-1-(4-(furan-3-carbonyl)piperazin-1-yl)prop-2-en-1-one]
IC50 [1]: 10 to 50 µM | IC50 [2]: 10 to 50 µM

COC(=O)C1CCN(C(=O)/C=C/c2ccc(N(C)C)cc2Cl)CC1 [Example 14, (E)-methyl 1-(3-(2-chloro-4-(dimethylamino)phenyl)acryloyl)piperidine-4-carboxylate]
IC50 [1]: 10 to 50 µM | IC50 [2]: 10 to 50 µM

COc1ccccc1Sc1ccc(/C=C/C(=O)N2CCC(C(=O)O)CC2)c(Cl)c1Cl [Example 32D, (E)-1-(3-(2,3-dichloro-4-(2-methoxyphenylthio)phenyl)acryloyl)piperidine-4-carboxylic acid]
IC50 [1]: 10 to 50 µM | IC50 [2]: 10 to 50 µM

O=C(/C=C/c1ccccc1Cl)N1Cc2ccccc2C1 [Example 34, (E)-3-(2-chlorophenyl)-1-(isoindolin-2-yl)prop-2-en-1-one]
IC50 [1]: 10 to 50 µM | IC50 [2]: 10 to 50 µM

CN(C)c1ccc(/C=C/C(=O)NCCCn2ccnc2)c(Cl)c1 [Example 11, (E)-N-(3-(1H-imidazol-1-yl)propyl)-3-(2-chloro-4-(dimethylamino)phenyl)acrylamide]
IC50 [1]: 10 to 50 µM | IC50 [2]: 10 to 50 µM

Cc1cc(/C=C/C(=O)N2CCCCC2)c(Cl)cc1Sc1ccc(F)cc1 [Example 16G, (E)-3-(2-chloro-4-(4-fluorophenylthio)-5-methylphenyl)-1-(piperidin-1-yl)prop-2-en-1-one]
IC50 [1]: 10 to 50 µM | IC50 [2]: 10 to 50 µM

COc1ccccc1Sc1ccc(/C=C/C(=O)NCCC2CCN(C)C2)c(Cl)c1 (stereo not shown) [Example 25, (E)-3-(2-chloro-4-(2-methoxyphenylthio)phenyl)-N-(2-(1-methylpyrrolidin-3-yl)ethyl)acrylamide]
IC50 [1]: 10 to 50 µM | IC50 [2]: 10 to 50 µM

COc1ccccc1Sc1ccc(/C=C/C(=O)NCCCN(C)C)c(Cl)c1 [Example 24B, (E)-3-(2-chloro-4-(2-methoxyphenylthio)phenyl)-N-(3-(dimethylamino)propyl)acrylamide]
IC50 [1]: 10 to 50 µM | IC50 [2]: 10 to 50 µM

CCN(CC)C(=O)/C=C/c1ccc(Sc2ccccc2OC)cc1Cl [Example 28, (E)-3-(2-chloro-4-(2-methoxyphenylthio)phenyl)-N,N-diethylacrylamide]
IC50 [1]: 10 to 50 µM | IC50 [2]: 10 to 50 µM

CC(=O)N1CCN(C(=O)/C=C/c2ccc(N(C)C)cc2Cl)CC1 [Example 9B, (E)-1-(4-acetylpiperazin-1-yl)-3-(2-chloro-4-(dimethylamino)phenyl)prop-2-en-1-one]
IC50 [1]: < 10 µM | IC50 [2]: < 10 µM

O=C(/C=C/c1ccc(Sc2ccc(F)cc2)cc1Cl)N1CCCCC1 [Example 2, (E)-3-(2-chloro-4-(4-fluorophenylthio)phenyl)-1-(piperidin-1-yl)prop-2-en-1-one]
IC50 [1]: < 10 µM | IC50 [2]: < 10 µM

CCN(CC)C(=O)/C=C/c1cc(C)c(Sc2ccc(F)cc2)cc1Cl [Example 18, (E)-3-(2-chloro-4-(4-fluorophenylthio)-5-methylphenyl)-N,N-diethylacrylamide]
IC50 [1]: 10 to 50 µM | IC50 [2]: 10 to 50 µM

CN(C)c1ccc(/C=C/C(=O)N2CCOCC2)c(Cl)c1 [Example 13, (E)-3-(2-chloro-4-(dimethylamino)phenyl)-1-morpholinoprop-2-en-1-one]
IC50 [1]: 10 to 50 µM | IC50 [2]: 10 to 50 µM

Cc1cc(/C=C/C(=O)N2CCOCC2)c(Cl)cc1Sc1ccc(F)cc1 [Example 23, (E)-3-(2-chloro-4-(4-fluorophenylthio)-5-methylphenyl)-1-morpholinoprop-2-en-1-one]
IC50 [1]: 10 to 50 µM | IC50 [2]: 10 to 50 µM

CCOC(=O)CCNC(=O)/C=C/c1cc(C)c(Sc2ccc(F)cc2)cc1Cl [Example 19, (E)-ethyl 3-(3-(2-chloro-4-(4-fluorophenylthio)-5-methylphenyl)acrylamido)propanoate]
IC50 [1]: 10 to 50 µM | IC50 [2]: 10 to 50 µM

COc1ccccc1Sc1ccc(/C=C/C(=O)N2CCC(C(=O)O)CC2)c(Cl)c1 [Example 26, (E)-1-(3-(2-chloro-4-(2-methoxyphenylthio)phenyl)acryloyl)piperidine-4-carboxylic acid]
IC50 [1]: 10 to 50 µM | IC50 [2]: 10 to 50 µM

Cc1cc(/C=C/C(=O)N2CCC(C(=O)O)CC2)c(Cl)cc1Sc1ccc(F)cc1 [Example 22, (E)-1-(3-(2-chloro-4-(4-fluorophenylthio)-5-methylphenyl)acryloyl)piperidine-4-carboxylic acid]
IC50 [1]: 10 to 50 µM | IC50 [2]: < 10 µM

O=C(/C=C/c1ccccc1Cl)NCCO [Example 33]
IC50 [1]: 10 to 50 µM | IC50 [2]: 10 to 50 µM

COc1ccccc1Sc1ccc(/C=C/C(=O)N2CCC(N3CCCC3)CC2)c(Cl)c1 [Example 30, (E)-3-(2-chloro-4-(2-methoxyphenylthio)phenyl)-1-(4-(pyrrolidin-1-yl)piperidin-1-yl)prop-2-en-1-one]
IC50 [1]: 10 to 50 µM | IC50 [2]: 10 to 50 µM
